The results in this text go back to PMC11429203, “Developing New Peptides and Peptide–Drug Conjugates for Targeting the FGFR2 Receptor-Expressing Tumor Cells and 3D Spheroids” (Biomimetics, 2024).

Where a SMILES comes first, the peptide text is derived from it. Where no end group is shown, it is not given here. The star is where a group is joined. Doxorubicin(3'-N) = COc1cccc2c1C(=O)c1c(O)c3c(c(O)c1C2=O)C[C@@](O)(C(=O)CO)C[C@@H]3O[C@H]1C[C@H](N*)[C@H](O)[C@H](C)O1

Type in all cases: cell-based, human
In assay [1] the test system is co-cultured spheroids of KATO (III) cells and colon tumor-associated fibroblasts (CAFs). Nature of the assay: Permeation into 3D co-cultured spheroids (fluorescence imaging). Particulars: for Permeation of DOX conjugates and neat DOX into spheroids / Permeation of carboxyfluorescein-tagged peptides into spheroids: 1 µM, spheroids grown 6 days at 2000 cells/well, fluorescence imaging; for Permeation of DOX conjugates and neat DOX into spheroids: inherent DOX fluorescence; for Penetration depth from Image J plot profiles of fluorescence intensity, periphery to center: semi-quantitative mean normalized intensity, mean from 3 spheroids; for Permeation of carboxyfluorescein-tagged peptides into spheroids: 24 h incubation. The protocol:
To mimic the tumor microenvironment, 3D cultures of tumor cells (spheroids) were grown. For growing spheroids, co-cultures of human colon-associated tumor fibroblasts and KATO III gastric cancer cells were grown in a 1:3 ratio in a growth media containing IMDM and fibroblast growth medium. Spheroids grown at 2000 cells/well and 4000 cells/well were co-cultured in Nunclon Sphera nonadherent 12-well plates and allowed to grow over a period of two weeks. The growth of the spheroids was monitored using optical microscopy. Media was cautiously removed every two days, and replaced with new medium.
The co-cultured spheroids were grown at a density of 2000 cells/well for six days prior to treatment with the peptides or the peptide–drug conjugates. To visualize the internalization of the peptides, those were first tagged with fluorescein to allow for visualization through fluorescence microscopy. For tagging, each peptide was tagged with NHS-Fluorescein (5/6-carboxyfluorescein succinimidyl ester to allow for binding with the amine group of the peptides). To each peptide solution (10 µM), 1 µM of the dye solution was added and allowed to shake in the dark for 24 h. The solutions were then centrifuged and washed with deionized water twice to remove any unbound dye. Then, peptide solutions were vortexed and allowed to incubate with the spheroids. For the drug conjugates, no tagging was done, due to inherent fluorescence of DOX. In general, 1 µM solutions of the peptides or drug conjugates were used. The spheroids were then visualized using fluorescent microscopy using an inverted Amscope IN480TC-20MB13 microscope at various magnifications.
To visualize the internalization of the peptides and the peptide–drug conjugates in the spheroids, we conducted fluorescence microscopy using an Amscope Inverted Phase-Contrast Fluorescence Microscope. Samples were imaged at various magnifications.
It is well known that constrained interstitial penetration may impede the diffusion of drugs into tumors, thus affecting efficacy. […] Their entry within the spheroids was examined through fluorescence imaging. In the case of the conjugates, because DOX is inherently fluorescent, fluorescence images were taken without tagging. […] The plot profiles obtained from the edge of the spheroid to the center were measured. On average, five measurements were carried out for images of each of the spheroids that were incubated with DOX-conjugated peptides, as well as with neat DOX. The fluoresence intensity from the periphery to the center of the spheroid was measured.

In assay [2] the test system is KATO III gastric cancer cells. Nature of the assay: WST-8 cytotoxicity assay, tumor cells. Particulars: 24 h, WST-8, highest concentration (5 µM), triplicate. The protocol: Three cell lines were cultured in 50 mL sterile falcon tissue culture flasks. These included the FGFR2-expressing KATO III gastric cancer cell line (ATCC HTB-103), human colon cancer-associated tumor fibroblasts (HC-6231, Cell Biologics), and primary lung fibroblasts (normal) as control (ATCC-PCS-201-013). Both lines of fibroblasts were grown in Fibroblast Growth Media, and KATO III cells were cultured in Iscove’s Modified Dulbecco’s Medium (IMDM). All growth media were supplement with 10% fetal bovine serum (ATCC), 3 mL of 1X antibiotic-antimycotic mixture per 500 mL medium (GIBCO), 10 units/mL penicillin and 10 μg/mL streptomycin (GIBCO). Each cell line was incubated at 37 °C in a 5% CO2 incubator. Cells were grown to confluence, and the medium was changed every 2 to 3 days. Confluent cells were split twice a week.
Cells were plated in 96-well plates at a density of 1 × 10^4 cells/well. WST-8 assays (Cayman Chemicals, Ann Arbor, MI, USA) were conducted in triplicate for non-cancer primary fibroblasts, as well as for KATO III cells, following manufacturer instructions from the assay kit. […] Following incubation with WST-8 reagent according to manufacturer instructions, absorbance at 450 nm was measured using a Biotek microplate reader. The absorbance of DOX in media was subtracted.
To quantify the effects of the cytotoxicity of the peptides and the DOX conjugates, we conducted WST-8 assays. […]

For a further assay, the system named is KATO (III) tumor cells. Nature of the assay: Phase contrast imaging of cell morphology after treatment. Particulars: 1 µM, 24 h, phase contrast microscopy. On the procedure:
Cells were plated in 96-well plates at a density of 1 × 10^4 cells/well. WST-8 assays (Cayman Chemicals, Ann Arbor, MI, USA) were conducted in triplicate for non-cancer primary fibroblasts, as well as for KATO III cells, following manufacturer instructions from the assay kit. In general, varying concentrations of the peptides and the DOX conjugates were utilized. The concentrations used were 0.1 µM, 0.5 µM, 1 µM, 2 µM and 5 µM. Neat DOX (1 µM, 2 µM) was also compared. The peptides or drug conjugates or DOX were allowed to incubate with cells for 24 h, and imaged using a phase contrast optical microscope before analysis. Following incubation with WST-8 reagent according to manufacturer instructions, absorbance at 450 nm was measured using a Biotek microplate reader. The absorbance of DOX in media was subtracted.
To investigate the impact of the peptides and the peptide–DOX conjugates on KATO (III) tumor cells, we conducted cytotoxicity studies.

On to `COc1cccc2c1C(=O)c1c(O)c3c(c(O)c1C2=O)C[C@@](O)(C(=O)CO)C[C@@H]3O[C@H]1C[C@H](NC(=O)CC[C@H](NC(=O)[C@@H]2CCCN2C(=O)[C@@H](NC(=O)[C@H](CC(C)C)NC(=O)[C@@H](NC(=O)[C@H](Cc2c[nH]cn2)NC(=O)[C@@H]2CCCN2C(=O)[C@@H](N)CC(C)C)C(C)C)[C@@H](C)O)C(=O)N[C@@H](C)C(=O)NCC(=O)N[C@@H](C)C(=O)N[C@H](C(=O)N[C@H]2C[C@H](O[C@H]3C[C@](O)(C(=O)CO)Cc4c(O)c5c(c(O)c43)C(=O)c3c(OC)cccc3C5=O)O[C@@H](C)[C@H]2O)[C@@H](C)O)[C@H](O)[C@H](C)O1` [L-pep-(DOX)2], for which the “Permeation of DOX conjugates and neat DOX into spheroids” value in assay [1] is given as “comparatively lower intensity of fluorescence”. For the same compound, in assay [2], the Cell viability came out at 7%.

Regarding `COc1cccc2c1C(=O)c1c(O)c3c(c(O)c1C2=O)C[C@@](O)(C(=O)CO)C[C@@H]3O[C@H]1C[C@H](N)[C@H](O)[C@H](C)O1` [DOX, Doxorubicin, reference compound], the “Permeation of DOX conjugates and neat DOX into spheroids” value in assay [1] is on record as “marginal internalization”.

Consider `COc1cccc2c1C(=O)c1c(O)c3c(c(O)c1C2=O)C[C@@](O)(C(=O)CO)C[C@@H]3O[C@H]1C[C@H](NC(=O)CNC(=O)[C@H](C)NC(=O)[C@H](CO)NC(=O)[C@H](CS)NC(=O)[C@H](C)N)[C@H](O)[C@H](C)O1` [A-pep-DOX] (H-ACSAG-{Doxorubicin(3'-N)}; N-terminus assumed), for which, in assay [1], the “Permeation of DOX conjugates and neat DOX into spheroids” value is recorded as “higher fluorescence”; the “Penetration depth from Image J plot profiles of fluorescence intensity, periphery to center” value was “penetrate deeper”. In assay [2], the Cell viability was 9%. In the assay on KATO (III) tumor cells, the “Cell morphology after treatment” value is “appeared to bleb and burst”.

As to ACSAG [A-pep], the “Permeation of carboxyfluorescein-tagged peptides into spheroids” value in assay [1] is recorded as “higher internalization”. Moreover, in the assay on KATO (III) tumor cells, the “Cell morphology after treatment” value was “loss of morphology and adhesive properties”.

For `CC(C)C[C@H](NC(=O)[C@@H](NC(=O)[C@H](Cc1c[nH]cn1)NC(=O)[C@@H]1CCCN1C(=O)[C@@H](N)CC(C)C)C(C)C)C(=O)N[C@H](C(=O)N1CCC[C@H]1C(=O)N[C@@H](CCC(=O)O)C(=O)N[C@@H](C)C(=O)NCC(=O)N[C@@H](C)C(=O)N[C@H](C(=O)O)[C@@H](C)O)[C@@H](C)O` [L-pep], the “Permeation of carboxyfluorescein-tagged peptides into spheroids” value in assay [1] is reported as “relatively higher fluorescence was observed in the outlayers compared to the core”. Also, in the assay on KATO (III) tumor cells, the “Cell morphology after treatment” value was “appeared spherical”.

With “ACSAGLPHVLTPEAGATGASCA-(DOX)2 [Trimer-pep-(DOX)2]”, in assay [1], the “Permeation of DOX conjugates and neat DOX into spheroids” value is given as “relatively higher penetration”; the “Penetration depth from Image J plot profiles of fluorescence intensity, periphery to center” value was “penetrate deeper”.
